Assay results reported in EP3262036B1, “THERAPEUTIC PYRIDAZINE COMPOUNDS AND USES THEREOF” (priority 2015, dated 2016).

The compounds below were run against BRG1 (Homo sapiens, UniProt P51532) (assay: biochemical). Conditions: BRG1 HTRF IC50 (µM).
Assay type: binding
Description: IC50 measurements for inhibitors using BRG1 TR-FRET Binding Assay

Sequence of BRG1 (P51532 1448-1575): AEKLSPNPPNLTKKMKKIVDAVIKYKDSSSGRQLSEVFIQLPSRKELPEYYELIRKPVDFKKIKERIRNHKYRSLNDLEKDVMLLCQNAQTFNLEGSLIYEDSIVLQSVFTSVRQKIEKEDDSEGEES

SMILES | IC50 [µM]
Nc1nnc(-c2ccccc2O)cc1N1CC2CCC(C1)N2C(=O)c1cncs1 [Example 126, (3-(3-amino-6-(2-hydroxyphenyl)pyridazin-4-yl)-3,8-diazabicyclo[3.2.1]octan-8-yl)(thiazol-5-yl)methanone] | 0.0203
CC(=O)N1[C@@H](C)CN(c2cc(-c3ccccc3O)nnc2N)C[C@@H]1C [Example 127, 1-((2S,6S)-4-(3-amino-6-(2-hydroxyphenyl)pyridazin-4-yl)-2,6-dimethylpiperazin-1-yl)ethan-1-one] | 0.369
CC1CN(c2cc(-c3ccccc3O)nnc2N)CCN1C(=O)c1cccnc1 (stereo not drawn) [Example 135, (4-(3-amino-6-(2-hydroxyphenyl)pyridazin-4-yl)-2-methylpiperazin-1-yl)(pyridin-3-yl)methanone] | 0.0446
Cc1cc(CC(=O)N2CCN(c3cc(-c4ccccc4O)nnc3N)CC2C)on1 (stereo not drawn) [Example 136, 1-(4-(3-amino-6-(2-hydroxyphenyl)pyridazin-4-yl)-2-methylpiperazin-1-yl)-2-(3-methylisoxazol-5-yl)ethan-1-one] | 0.0444
CC(=O)N1[C@H](C)CN(c2cc(-c3ccccc3O)nnc2N)C[C@@H]1C [Example 139, 1-((2S,6R)-4-(3-amino-6-(2-hydroxyphenyl)pyridazin-4-yl)-2,6-dimethylpiperazin-1-yl)ethan-1-one] | 0.106
C[C@@H]1CN(c2cc(-c3ccccc3O)nnc2N)CCN1C(=O)C(C)(C)O [Example 145, (R)-1-(4-(3-amino-6-(2-hydroxyphenyl)pyridazin-4-yl)-2-methylpiperazin-1-yl)-2-hydroxy-2-methylpropan-1-one] | 0.0642
C[C@H]1CN(c2cc(-c3ccccc3O)nnc2N)CCN1C(=O)C(C)(C)O [Example 146, (S)-1-(4-(3-amino-6-(2-hydroxyphenyl)pyridazin-4-yl)-2-methylpiperazin-1-yl)-2-hydroxy-2-methylpropan-1-one] | 0.0458
CC(C)[C@H](N)C(=O)N1CCN(c2cc(-c3ccccc3O)nnc2N)C[C@@H]1C [Example 158, 2-Amino-1-((R)-4-(3-amino-6-(2-hydroxyphenyl)pvridazin-4-yl)-2-methylpiperazin-1-yl)-3-methylbutan-1-one] | 0.113
Nc1nnc(-c2ccccc2O)cc1O[C@H]1CCCC[C@@H]1c1ccccc1 [Example 165, 2-(6-amino-5-(((1,2-trans)-2-phenylcyclohexyl)oxy)pyridazin-3-yl)phenol] | 0.977
CN1CCC(Oc2cc(-c3ccccc3O)nnc2N)CC1 [Example 172, 2-(6-amino-5-((1-methylpiperidin-4-yl)oxy)pyridazin-3-yl)phenol] | 0.161
CN(C)CCCOc1cc(-c2ccccc2O)nnc1N [Example 175, 2-(6-amino-5-(3-(dimethylamino)propoxy)pyridazin-3-yl)phenol] | 0.117
Nc1nnc(-c2ccccc2O)cc1OC1CCCC1 [Example 176, 2-(6-amino-5-(cyclopentyloxy)pyridazin-3-yl)phenol] | 0.0371
Nc1nnc(-c2ccccc2O)cc1OC1CCCCC1 [Example 179, 2-(6-amino-5-(cyclohexyloxy)pyridazin-3-yl)phenol] | 0.0451
Nc1nnc(-c2ccccc2O)cc1OC1CCCN(c2ccccc2)C1 (stereo not drawn) [Example 183, 2-(6-amino-5-((1-phenylpiperidin-3-yl)oxy)pyridazin-3-yl)phenol] | 0.0172
Nc1nnc(-c2ccccc2O)cc1OC1CCN(c2ccccc2)C1 (stereo not drawn) [Example 184, 2-(6-amino-5-((1-phenylpyrrolidin-3-yl)oxy)pyridazin-3-yl)phenol] | 0.192
Nc1nnc(-c2ccccc2O)cc1C1CC1 [Example 190, 2-(6-amino-5-cyclopropylpyridazin-3 - yl)phenol] | 0.0176
C[C@@H](C(=O)N(C)C)n1cc(-c2cc(-c3ccccc3O)nnc2N)cn1 [Example 196, 2-(4-(3-Amino-6-(2-hvdroxyphenyl)pyridazin-4-vl)-1H-pvrazol-1-yl)-N,N-dimethylpropanamide] | 0.0247
CC(C(=O)N(C)C)n1cnc(-c2cc(-c3ccccc3O)nnc2N)c1 (stereo not drawn) [Example 197, 2-(4-(3-amino-6-(2-hydroxyphenyl)pyridazin-4-yl)-1H-imidazol-1-yl)-N,N-dimethylpropanamide] | 0.0339
Nc1ccc(-c2ccccc2O)nn1 [Example 203, 2-(6-aminopyridazin-3-yl)phenol] | 0.335
Nc1nnc(-c2ccccc2O)cc1C1CCOCC1 [Example 213, 2-(6-amino-5-(tetrahydro-2H-pyran-4-yl)pyridazin-3-yl)phenol] | 0.0611

The remaining compounds from weak to strong by IC50, led by results:

IC50 [µM] | SMILES
1.08 | CC(=O)Nc1ccc(-c2ccccc2O)nn1 [Example 205, N-(6-(2-hydroxyphenyl)pyridazin-3-yl)acetamide]
1.08 | Cn1nccc1-c1cc(-c2ccccc2O)nnc1N [Example 193, 2-(6-amino-5-(1-methyl-1H-pyrazol-5-yl)pyridazin-3-yl)phenol]
0.641 | Nc1nnc(-c2ccccc2O)cc1OC1CCCN(C(=O)c2ccccc2)C1 (stereo not drawn) [Example 185, (3-((3-amino-6-(2-hydroxyphenyl)pyridazin-4-yl)oxy)piperidin-1-yl)(phenyl)methanone]
0.606 | Nc1nnc(-c2ccccc2O)cc1OC1CCc2ccccc21 (stereo not drawn) [Example 182, 2-(6-amino-5-((2,3-dihydro-1H-inden-1-yl)oxy)pyridazin-3-yl)phenol]
0.505 | CC(=O)N1[C@H](C)CN(c2cc(-c3ccccc3O)nnc2N)C[C@H]1C [Example 128, 1-((2R,6R)-4-(3-amino-6-(2-hydroxyphenyl)pyridazin-4-yl)-2,6-dimethylpiperazin-1-yl)ethan-1-one]
0.183 | CN1CCC(c2cc(-c3ccccc3O)nnc2N)CC1 [Example 211, 2-(6-amino-5-(1-methylpiperidin-4-yl)pyridazin-3-yl)phenol]
0.166 | C[C@H]1CN(c2cc(-c3ccccc3O)nnc2N)CCN1C(=O)c1cccnc1 [Example 155]
0.143 | CC(Oc1cc(-c2ccccc2O)nnc1N)C(C)(C)C (stereo not drawn) [Example 164, 2-(6-amino-5-((3,3-dimethylbutan-2-yl)oxy)pyridazin-3-yl)phenol]
0.132 | C[C@@H](Oc1cc(-c2ccccc2O)nnc1N)c1cccnc1 [Example 166, (R)-2-(6-amino-5-(1-(pyridin-3-yl)ethoxy)pyridazin-3-yl)phenol]
0.0975 | C[C@H]1CN(c2cc(-c3ccccc3O)nnc2N)CCN1C(=O)[C@@H]1CCCO1 [Example 142, ((S)-4-(3-amino-6-(2-hydroxyphenyl)pyridazin-4-yl)-2-methylpiperazin-1-yl)((S)-tetrahydrofuran-2-yl)methanone]
0.0792 | CC(Oc1cc(-c2ccccc2O)nnc1N)c1cccnc1 (stereo not drawn) [Example 171, 2-(6-amino-5-(1-(pyridin-3-yl)ethoxy)pyridazin-3-yl)phenol]
0.0694 | CC(C)(C)OC(=O)N1CCC(c2cc(-c3ccccc3O)nnc2N)C1 (stereo not drawn) [Example 212, tert-butyl 3-(3-amino-6-(2-hydroxyphenyl)pyridazin-4-yl)pyrrolidine-1-carboxylate]
0.0613 | CNC(=O)CN1CCN(c2cc(-c3ccccc3O)nnc2N)C[C@H]1C [Example 148, (R)-2-(4-(3-amino-6-(2-hydroxyphenyl)pyridazin-4-yl)-2-methylpiperazin-1-yl)-N-methylacetamide]
0.0586 | CC1CN(c2cc(-c3ccccc3O)nnc2N)CCN1C(=O)CN(C)C (stereo not drawn) [Example 162, 1-(4-(3-amino-6-(2-hydroxyphenyl)pyridazin-4-yl)-2-methylpiperazin-1-yl)-2-(dimethylamino)ethanone]
0.0475 | CC(C)[C@H](N)C(=O)N1CCN(c2cc(-c3ccccc3O)nnc2N)CC1C (stereo partly drawn) [Example 140, (2S)-2-amino-1-(4-(3-amino-6-(2-hydroxyphenyl)pyridazin-4-yl)-2-methylpiperazin-1-yl)-3-methylbutan-1-one]
0.0435 | C[C@@H]1CN(c2cc(-c3ccccc3O)nnc2N)CCN1C(=O)c1cccnc1 [Example 156]
0.0349 | CC1CN(c2cc(-c3ccccc3O)nnc2N)CCN1C(=O)C(C)(C)O (stereo not drawn) [Example 134, 1-(4-(3-amino-6-(2-hydroxyphenyl)pyridazin-4-yl)-2-methylpiperazin-1-yl)-2-hydroxy-2-methylpropan-1-one]
0.0337 | Nc1nnc(-c2ccccc2O)cc1OC1CCCN(Cc2ccccc2)C1 (stereo not drawn) [Example 181, 2-(6-amino-5-((1-benzylpiperidin-3-yl)oxy)pyridazin-3-yl)phenol]
0.033 | C[C@@H]1CN(c2cc(-c3ccccc3O)nnc2N)CCN1C(=O)[C@@H]1CCCO1 [Example 141, ((R)-4-(3-amino-6-(2-hydroxyphenyl)pyridazin-4-yl)-2-methylpiperazin-1-yl)((S)-tetrahydrofuran-2-yl)methanone]
0.0296 | CC(C)[C@H](N)C(=O)N1CCN(c2cc(-c3ccccc3O)nnc2N)C[C@H]1C [Example 157, 2-Amino-1-((R)-4-(3-amino-6-(2-hydroxyphenyl)pvridazin-4-yl)-2-methylpiperazin-1-yl)-3-methylbutan-1-one]
0.0251 | C[C@H](Oc1cc(-c2ccccc2O)nnc1N)c1cccnc1 [Example 167, (S)-2-(6-amino-5-(1-(pyridin-3-yl)ethoxy)pyridazin-3-yl)phenol]
0.0247 | CC(C(=O)N(C)C)n1cc(-c2cc(-c3ccccc3O)nnc2N)cn1 (stereo not drawn) [Example 194, 2-(4-(3-amino-6-(2-hydroxyphenyl)pyridazin-4-yl)-1 H-pyrazol-1-yl)-N,N-dimethylpropanamide]
0.0217 | C[C@H](C(=O)N(C)C)n1cc(-c2cc(-c3ccccc3O)nnc2N)cn1 [Example 195, 2-(4-(3-Amino-6-(2-hvdroxyphenyl)pyridazin-4-vl)-1H-pvrazol-1-yl)-N,N-dimethylpropanamide]
0.0206 | Nc1nnc(-c2ccccc2O)cc1N1CCN(C(=O)c2cncs2)C(CO)C1 (stereo not drawn) [Example 143, (4-(3-amino-6-(2-hydroxyphenyl)pyridazin-4-yl)-2-(hydroxymethyl)piperazin-1-yl)(thiazol-5-yl)methanone]
0.0126 | CC1CN(c2cc(-c3ccccc3O)nnc2N)CCN1C(=O)c1cncs1 (stereo not drawn) [Example 138, (4-(3-amino-6-(2-hydroxyphenyl)pyridazin-4-yl)-2-methylpiperazin-1-yl)(thiazol-5-yl)methanone]
